# In patent US20110092544A1, “FUNGICIDAL PYRIDINES” (E.I. DU PONT DE nemours and company, priority 2008, published 2011):
# How the values were obtained:
# Format in all cases: in vivo
# Septoria nodorum = test: Test D: wheat glume blotch, preventive spray on wheat seedlings, visual disease rating
# Text: (§1) General protocol for preparing test suspensions for Tests A-H: The test compounds were first dissolved in acetone in an amount equal to 3% of the final volume and then suspended at the desired concentration (in ppm) in acetone and purified water (50/50 mix) containing 250 ppm of the surfactant Trem® 014 (polyhydric alcohol esters). The resulting test suspensions were then used in tests A-H. Spraying a 200 ppm test suspension to the point of run-off on the test plants was the equivalent of a rate of 500 g/ha.
# The test suspension was sprayed to the point of run-off on wheat seedlings. The following day the seedlings were inoculated with a spore suspension of Septoria nodorum (the causal agent of wheat glume blotch) and incubated in a saturated atmosphere at 20° C. for 48 h, and then moved to a growth chamber at 20° C. for 7 days, after which time disease ratings were visually made.
# (§2) Results for Tests A-H are given in Table A. In the table, a rating of 100 indicates 100% disease control and a rating of 0 indicates no disease control (relative to the controls). A dash (-) indicates no test results. All results are for compounds tested at 200 ppm except where the compound number is followed by “*” which indicates the compound was tested at 40 ppm.
# Alternaria solani = test: Test E: tomato early blight, preventive spray on tomato seedlings, visual disease rating
# Text: as §1
# The test suspension was sprayed to the point of run-off on tomato seedlings. The following day the seedlings were inoculated with a spore suspension of Alternaria solani (the causal agent of tomato early blight) and incubated in a saturated atmosphere at 27° C. for 48 h, and then moved to a growth chamber at 20° C. for 5 days, after which time disease ratings were visually made.
# as §2
# [1] = system: Puccinia recondite f. sp. tritici; test: Test B: wheat leaf rust, preventive spray on wheat seedlings, visual disease rating
# Text: as §1
# The test suspension was sprayed to the point of run-off on wheat seedlings. The following day the seedlings were inoculated with a spore suspension of Puccinia recondite f. sp. tritici (the causal agent of wheat leaf rust) and incubated in a saturated atmosphere at 20° C. for 24 h, and then moved to a growth chamber at 20° C. for 7 days, after which time disease ratings were visually made.
# as §2
# Septoria tritici = test: Test C: wheat leaf blotch, preventive spray on wheat seedlings, visual disease rating
# Text: as §1
# The test suspension was sprayed to the point of run-off on wheat seedlings. The following day the seedlings were inoculated with a spore suspension of Septoria tritici (the causal agent of wheat leaf blotch) and incubated in a saturated atmosphere at 20° C. for 48 h, and moved to a growth chamber at 20° C. for 19 additional days, after which time disease ratings were visually made.
# as §2
# [2] = system: Erysiphe graminis f. sp. tritici; test: Test A: wheat powdery mildew, preventive spray on wheat seedlings, visual disease rating
# Text: as §1
# The test suspension was sprayed to the point of run-off on wheat seedlings. The following day the seedlings were inoculated with a spore dust of Erysiphe graminis f. sp. tritici (the causal agent of wheat powdery mildew) and incubated in a growth chamber at 20° C. for 8 days, after which time disease ratings were visually made.
# as §2
# Botrytis cinerea = test: Test F: tomato botrytis, preventive spray on tomato seedlings, visual disease rating
# Text: as §1
# The test suspension was sprayed to the point of run-off on tomato seedlings. The following day the seedlings were inoculated with a spore suspension of Botrytis cinerea (the causal agent of tomato botrytis) and incubated in saturated atmosphere at 20° C. for 48 h, and then moved to a growth chamber at 24° C. for 3 additional days, after which time disease ratings were visually made.
# as §2
# [3] = 200 ppm, 100 = 100% disease control, 0 = no control
# [4] = 40 ppm (compound number followed by *)
SMILES,Test D rating (% disease control) (Septoria nodorum; [3]) [%],Test E rating (% disease control) (Alternaria solani; [3]) [%],"Test B rating (% disease control) [1, 3] [%]",Test C rating (% disease control) (Septoria tritici; [3]) [%],"Test A rating (% disease control) [2, 3] [%]",Test F rating (% disease control) (Botrytis cinerea; [3]) [%],other results
COc1cc(OC)cc(-c2c(-c3ccc(F)cc3)cnc(C)c2-c2ccc(F)cc2F)c1 [Compound 95],0,73,99,96,93,87,–
"COc1cc(OC)cc(-c2c(CO)cnc(C)c2-c2c(F)cc(F)cc2F)c1 [Compound 96, 4-(3,5-dimethoxyphenyl)-6-methyl-5-(2,4,6-trifluorophenyl)-3-pyridinemethanol]",–,–,–,–,–,–,"pest or weed control at 200 ppm (Septoria nodorum; Parastagonospora nodorum, 216 h, 200 ppm, 100 = 100% disease control, 0 = no control): 0%; pest or weed control at 200 ppm (Alternaria solani; Alternaria solani, 168 h, 200 ppm, 100 = 100% disease control, 0 = no control): 99%; pest or weed control at 200 ppm ([1]; 192 h, 200 ppm, 100 = 100% disease control, 0 = no control): 96%; pest or weed control at 200 ppm (Septoria tritici; Zymoseptoria tritici, 504 h, 200 ppm, 100 = 100% disease control, 0 = no control): 94%; pest or weed control at 200 ppm ([2]; Blumeria graminis, 192 h, 200 ppm, 100 = 100% disease control, 0 = no control): 98%; pest or weed control at 200 ppm (Botrytis cinerea; Botrytis cinerea, 120 h, 200 ppm, 100 = 100% disease control, 0 = no control): 98%"
COc1cc(OC)cc(-c2c(Cn3cccn3)cnc(C)c2-c2c(F)cc(F)cc2F)c1 [Compound 97],100,100,100,95,100,99,–
CCC(O)(CC)c1cnc(C)c(-c2c(F)cc(F)cc2F)c1-c1cc(OC)cc(OC)c1 [Compound 98],0,9,92,92,86,93,–
CCC(O)c1cnc(C)c(-c2c(F)cc(F)cc2F)c1-c1cc(OC)cc(OC)c1 (stereo not drawn) [Compound 99],100,100,100,94,100,98,–
Cc1ncc(-c2ccccc2F)c(-c2cc(O)cc(O)c2)c1-c1ccc(F)cc1 [Compound 100],0,0,89,76,76,100,–
Cc1ncc(-c2ccccc2F)c(-c2cc(OC(F)F)cc(OC(F)F)c2)c1-c1ccc(F)cc1 [Compound 101],0,0,89,96,82,96,–
COc1cc(OC)cc(-c2c(C(C)(C)OC(C)=O)cnc(C)c2-c2c(F)cc(F)cc2F)c1 [Compound 102],0,91,92,97,98,98,–
COc1cc(OC)cc(-c2c(C(O)C(C)C)cnc(C)c2-c2c(F)cc(F)cc2F)c1 (stereo not drawn) [Compound 103],98,100,100,95,100,99,–
COc1cc(OC)cc(-c2c(Cn3cncn3)cnc(C)c2-c2c(F)cc(F)cc2F)c1 [Compound 104],99,100,100,98,100,99,–
COc1cc(OC)cc(-c2c(C(C)=O)cnc(C)c2-c2c(F)ccc(OC)c2F)c1 [Compound 105],0,0,99,93,100,98,–
COc1cc(OC)cc(-c2c(C(C)(C)O)cnc(C)c2-c2c(F)ccc(OC)c2F)c1 [Compound 106],0,99,100,98,96,98,–
COc1cc(OC)cc(-c2c(C(C)O)cnc(C)c2-c2c(F)cc(F)cc2F)c1 (stereo not drawn) [Compound 107],98,100,100,98,100,99,–
COc1cc(OC)cc(-c2c(Cn3ccc(C(F)(F)F)n3)cnc(C)c2-c2c(F)cc(F)cc2F)c1 [Compound 108],0,0,85,71,64,87,–
COc1cc(OC)cc(-c2c(COc3ccccc3)cnc(C)c2-c2c(F)cc(F)cc2F)c1 [Compound 109],0,0,97,97,98,92,–
COc1cc(OC)cc(-c2c(CN3CCCCC3)cnc(C)c2-c2c(F)cc(F)cc2F)c1 [Compound 111],0,0,97,91,93,99,–
COc1cc(OC)cc(-c2c(C=O)cnc(C)c2-c2c(F)cc(F)cc2F)c1 [Compound 112],–,–,–,–,–,–,"Test D rating (% disease control) (Septoria nodorum; [4]): 0%; Test E rating (% disease control) (Alternaria solani; [4]): 9%; Test B rating (% disease control) [1, 4]: 80%; Test C rating (% disease control) (Septoria tritici; [4]): 93%; Test A rating (% disease control) [2, 4]: 96%; Test F rating (% disease control) (Botrytis cinerea; [4]): 96%"
COc1cc(OC)cc(-c2c(C=O)cnc(C)c2-c2c(F)ccc(OC)c2F)c1 [Compound 113],–,–,–,–,–,–,"Test D rating (% disease control) (Septoria nodorum; [4]): 0%; Test E rating (% disease control) (Alternaria solani; [4]): 9%; Test B rating (% disease control) [1, 4]: 89%; Test C rating (% disease control) (Septoria tritici; [4]): 76%; Test A rating (% disease control) [2, 4]: 0%; Test F rating (% disease control) (Botrytis cinerea; [4]): 79%"
